Values belong to the compound of their own block, whether it stands above or below them.
Experiments:
[1] = system: T1, polyphenol oxidase (PPO) from the fruits of Opuntia ficus-indica; assay: absorbance at […] nm, Lineweaver-Burk; format: biochemical; details: 0.1 M phosphate buffer
T1 construct: native, from fruit flesh; few SDS-PAGE bands, two prominent: slightly below 35 kDa and slightly above 45 kDa

[2] = system: T1, polyphenol oxidase (PPO) from the fruits of Opuntia ficus-indica; assay: absorbance at […] nm, Lineweaver-Burk; format: biochemical; details: pH 9.0, 20 °C, 0.1 M Tris-base buffer

- Km ([1]; pH 7.5, 30 °C): 5.38 mM
SMILES: Cc1ccc(O)c(O)c1 [4-methyl catechol]

SMILES: Oc1ccccc1O [catechol]
- Km ([1]; pH 7.5, 20 °C): 6.33 mM

- Km [2]: 16.7 mM
SMILES: Oc1cccc(O)c1O [pyrogallol]

From publication PMC10604213, “Purification and Characterization of Polyphenol Oxidase in the Fruits of Opuntia ficus-indica” (Biology, 2023)
